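Interpolation was linear, between the two tested concentrations surrounding the appropriate level; five concentrations were tested over 48 hours in 96-well plates. At the GI50, growth is halved.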 The source made the active and inactive calls. No stated cut-off is given here; in the data, active = GI50 up to about 1.1 µM and inactive = higher.
Assays:
Assay in all cases: growth of human tumour cells (NCI), 48 h
M14 = tested on: M14
SN12C = tested on: SN12C
SK-OV-3 = tested on: SK-OV-3
UO-31 = tested on: UO-31
A549 = tested on: A549
TK-10 = tested on: TK-10
NCI-H23 = tested on: NCI-H23
U-251 = tested on: U-251
KM12 = tested on: KM12
SF-539 = tested on: SF-539
SNB-75 = tested on: SNB-75
NCI-H460 = tested on: NCI-H460
NCI-H522 = tested on: NCI-H522
Malme-3M = tested on: Malme-3M
786-0 = tested on: 786-0
HCT-116 = tested on: HCT-116
OVCAR-3 = tested on: OVCAR-3
SNB-19 = tested on: SNB-19
A498 = tested on: A498
SW-620 = tested on: SW-620
RPMI-8226 = tested on: RPMI-8226
BT-549 = tested on: BT-549
HCT-15 = tested on: HCT-15
MCF7 = tested on: MCF7
MDA-N = tested on: MDA-N
MDA-MB-435 = tested on: MDA-MB-435
OVCAR-4 = tested on: OVCAR-4
HOP-62 = tested on: HOP-62
MOLT-4 = tested on: MOLT-4
MDA-MB-231 = tested on: MDA-MB-231
PC-3 = tested on: PC-3
HL-60 = tested on: HL-60
OVCAR-5 = tested on: OVCAR-5
SK-MEL-5 = tested on: SK-MEL-5
DU-145 = tested on: DU-145
NCI/ADR-RES = tested on: NCI/ADR-RES
HCC 2998 = tested on: HCC 2998
IGROV-1 = tested on: IGROV-1
LOX IMVI = tested on: LOX IMVI
CCRF-CEM = tested on: CCRF-CEM
HT-29 = tested on: HT-29
SK-MEL-2 = tested on: SK-MEL-2
CAKI-1 = tested on: CAKI-1
T47D = tested on: T47D
SF-295 = tested on: SF-295
HOP-92 = tested on: HOP-92
ACHN = tested on: ACHN
OVCAR-8 = tested on: OVCAR-8
UACC-257 = tested on: UACC-257
COLO 205 = tested on: COLO 205
UACC-62 = tested on: UACC-62
Hs-578T = tested on: Hs-578T
K562 = tested on: K562
EKVX = tested on: EKVX
NCI-H226 = tested on: NCI-H226
RXF 393 = tested on: RXF 393
SF-268 = tested on: SF-268
SK-MEL-28 = tested on: SK-MEL-28

Measured: GI50

CCCCCCCCCCCCC(O)C(=O)O (centres undefined)
> 100 µM: HCT-15
inactive: M14 > 100 µM | SN12C > 100 µM | SK-OV-3 > 100 µM | UO-31 > 100 µM | A549 > 100 µM | TK-10 > 100 µM | NCI-H23 > 100 µM | U-251 > 100 µM | KM12 > 100 µM | SF-539 > 100 µM | SNB-75 > 100 µM | NCI-H460 > 100 µM | NCI-H522 > 100 µM | Malme-3M > 100 µM | 786-0 > 100 µM | HCT-116 > 100 µM | OVCAR-3 > 100 µM | SNB-19 > 100 µM | A498 > 100 µM | SW-620 > 100 µM | RPMI-8226 > 100 µM | BT-549 > 100 µM | MCF7 > 100 µM | MDA-N > 100 µM | MDA-MB-435 > 100 µM | OVCAR-4 > 100 µM | HOP-62 > 100 µM | MOLT-4 > 100 µM | MDA-MB-231 > 100 µM | PC-3 > 100 µM | HL-60 98.6 µM | OVCAR-5 > 100 µM | SK-MEL-5 > 100 µM | DU-145 > 100 µM | NCI/ADR-RES > 100 µM | HCC 2998 > 100 µM | IGROV-1 > 100 µM | LOX IMVI > 100 µM | CCRF-CEM > 100 µM | HT-29 > 100 µM | SK-MEL-2 > 100 µM | CAKI-1 > 100 µM | T47D > 100 µM | SF-295 > 100 µM | HOP-92 > 100 µM | ACHN > 100 µM | OVCAR-8 > 100 µM | UACC-257 > 100 µM | COLO 205 > 100 µM | UACC-62 > 100 µM | Hs-578T > 100 µM | K562 > 100 µM

Nc1nc(Cl)c(N)c(NCC2(CO)CC(Cc3ccccc3)C2)n1 (centres undefined)
inactive: M14 55.2 µM | SN12C > 100 µM | SK-OV-3 > 100 µM | UO-31 > 100 µM | A549 > 75 µM | TK-10 > 100 µM | U-251 14.6 µM | KM12 35.7 µM | SF-539 > 100 µM | SNB-75 > 85.3 µM | EKVX 3.2 µM | NCI-H460 > 55.5 µM | NCI-H522 28.5 µM | NCI-H226 > 31.8 µM | 786-0 > 91.4 µM | HCT-116 3.15 µM | RXF 393 > 42.6 µM | OVCAR-3 26.3 µM | SNB-19 > 66.4 µM | SF-268 > 92.9 µM | SW-620 > 72.8 µM | RPMI-8226 2.41 µM | BT-549 42.5 µM | MCF7 7.87 µM | MDA-N 33.3 µM | MDA-MB-435 16.6 µM | OVCAR-4 48.1 µM | HOP-62 > 49.3 µM | MOLT-4 16.3 µM | MDA-MB-231 61.4 µM | PC-3 51.3 µM | HL-60 4.8 µM | OVCAR-5 > 100 µM | DU-145 > 100 µM | NCI/ADR-RES 15.1 µM | HCC 2998 > 93.5 µM | IGROV-1 > 78.5 µM | LOX IMVI 2.42 µM | CCRF-CEM 23.1 µM | SK-MEL-28 > 100 µM | HT-29 70.6 µM | SK-MEL-2 52.6 µM | CAKI-1 > 100 µM | SF-295 > 100 µM | HOP-92 > 77.3 µM | ACHN 97.9 µM | OVCAR-8 56.9 µM | COLO 205 34.9 µM | UACC-62 > 76.9 µM | Hs-578T > 39.8 µM
active: NCI-H23 0.865 µM | SK-MEL-5 0.0766 µM | T47D 0.923 µM | UACC-257 0.127 µM | K562 0.218 µM
> 79.3 µM: HCT-15

— ChEMBL document CHEMBL1201862, “PubChem BioAssay data set” (2004)
